Source: the NIST ThermoML archive (doi:10.1016/j.jct.2018.12.001)
Several values for one entry are separate records, joined by “and”; a condition that tells them apart may be missing. Identical values can stand only once. Numbers after ± are expanded uncertainties.

Assays:
[1] = Crystal; for vapor or sublimation pressure: Calculated from knudsen effusion weight loss; for Normal melting temperature: DTA
[2] = Molar enthalpy of transition or fusion; conditions: Crystal; DSC

SMILES: c1ccc(-c2cnc(-c3ccccc3)o2)cc1 [2,5-diphenyloxazole]
- vapor or sublimation pressure ([1]; 328.18 K): 7.2e-05 ± 2e-05 kPa
- vapor or sublimation pressure ([1]; 329.28 K): 8.2e-05 ± 2e-05 kPa and 8.1e-05 ± 2e-05 kPa
- vapor or sublimation pressure ([1]; 330.3 K): 9.2e-05 ± 2e-05 kPa and 9.4e-05 ± 2e-05 kPa
- vapor or sublimation pressure ([1]; 331.19 K): 0.000103 ± 2e-05 kPa and 0.000104 ± 2e-05 kPa
- vapor or sublimation pressure ([1]; 332.29 K): 0.000118 ± 2e-05 kPa and 0.000116 ± 2e-05 kPa
- vapor or sublimation pressure ([1]; 333.29 K): 0.000133 ± 2.1e-05 kPa and 0.000135 ± 2.1e-05 kPa
- vapor or sublimation pressure ([1]; 334.19 K): 0.000149 ± 2.1e-05 kPa and 0.000148 ± 2.1e-05 kPa
- vapor or sublimation pressure ([1]; 335.17 K): 0.000167 ± 2.1e-05 kPa and 0.000166 ± 2.1e-05 kPa
- vapor or sublimation pressure ([1]; 336.2 K): 0.000189 ± 2.1e-05 kPa and 0.000188 ± 2.1e-05 kPa
- vapor or sublimation pressure ([1]; 337.18 K): 0.000209 ± 2.1e-05 kPa and 0.000212 ± 2.1e-05 kPa and 0.000215 ± 2.1e-05 kPa
- vapor or sublimation pressure ([1]; 338.17 K): 0.000241 ± 2.2e-05 kPa and 0.000237 ± 2.2e-05 kPa and 0.000238 ± 2.2e-05 kPa
- vapor or sublimation pressure ([1]; 339.29 K): 0.00027 ± 2.2e-05 kPa and 0.000269 ± 2.2e-05 kPa and 0.000268 ± 2.2e-05 kPa
- vapor or sublimation pressure ([1]; 340.25 K): 0.000301 ± 2.3e-05 kPa and 0.0003 ± 2.3e-05 kPa
- vapor or sublimation pressure ([1]; 341.3 K): 0.00034 ± 2.3e-05 kPa and 0.000343 ± 2.3e-05 kPa and 0.000342 ± 2.3e-05 kPa
- vapor or sublimation pressure ([1]; 342.3 K): 0.000385 ± 2.4e-05 kPa and 0.000382 ± 2.4e-05 kPa and 0.000384 ± 2.4e-05 kPa
- Normal melting temperature [1]: 71.08 ± 0.43 °C
- Molar enthalpy of transition or fusion [2]: 5.48 ± 0.127 kcal/mol

SMILES: O=C1OC(=O)C(c2ccccc2)=C1c1ccccc1 [diphenylmaleic anhydride]
- vapor or sublimation pressure ([1]; 361.07 K): 0.000112 ± 2e-05 kPa and 0.000113 ± 2e-05 kPa and 0.000111 ± 2e-05 kPa
- vapor or sublimation pressure ([1]; 363.19 K): 0.00014 ± 2.1e-05 kPa and 0.000138 ± 2.1e-05 kPa
- vapor or sublimation pressure ([1]; 365.3 K): 0.000178 ± 2.1e-05 kPa and 0.000175 ± 2.1e-05 kPa and 0.000177 ± 2.1e-05 kPa
- vapor or sublimation pressure ([1]; 367.1 K): 0.000213 ± 2.1e-05 kPa and 0.000215 ± 2.1e-05 kPa
- vapor or sublimation pressure ([1]; 369.26 K): 0.000266 ± 2.2e-05 kPa and 0.000265 ± 2.2e-05 kPa
- vapor or sublimation pressure ([1]; 371.29 K): 0.000335 ± 2.3e-05 kPa and 0.000332 ± 2.3e-05 kPa and 0.000331 ± 2.3e-05 kPa
- vapor or sublimation pressure ([1]; 373.08 K): 0.000392 ± 2.4e-05 kPa and 0.000393 ± 2.4e-05 kPa and 0.000399 ± 2.4e-05 kPa
- vapor or sublimation pressure ([1]; 375.28 K): 0.000492 ± 2.7e-05 kPa and 0.000483 ± 2.6e-05 kPa and 0.000494 ± 2.7e-05 kPa
- vapor or sublimation pressure ([1]; 377.3 K): 0.00061 ± 2.9e-05 kPa and 0.0006 ± 2.9e-05 kPa and 0.00059 ± 2.9e-05 kPa
- vapor or sublimation pressure ([1]; 379.19 K): 0.000733 ± 3.3e-05 kPa and 0.000729 ± 3.3e-05 kPa and 0.00074 ± 3.3e-05 kPa
- vapor or sublimation pressure ([1]; 381.16 K): 0.000894 ± 3.7e-05 kPa and 0.000891 ± 3.7e-05 kPa and 0.000881 ± 3.7e-05 kPa
- vapor or sublimation pressure ([1]; 383.2 K): 0.001108 ± 8.8e-05 kPa and 0.001106 ± 8.8e-05 kPa and 0.00109 ± 8.6e-05 kPa
- Normal melting temperature [1]: 157.52 ± 0.44 °C
- Molar enthalpy of transition or fusion [2]: 6.52 ± 0.184 kcal/mol

SMILES: O=C1C=C(c2ccccc2)C(=O)O1 [phenylmaleic anhydride]
- vapor or sublimation pressure ([1]; 319.14 K): 0.000102 ± 2e-05 kPa and 0.0001 ± 2e-05 kPa
- vapor or sublimation pressure ([1]; 321.22 K): 0.000125 ± 2e-05 kPa and 0.000126 ± 2.1e-05 kPa and 0.00013 ± 2.1e-05 kPa
- vapor or sublimation pressure ([1]; 323.2 K): 0.000161 ± 2.1e-05 kPa and 0.000164 ± 2.1e-05 kPa and 0.000165 ± 2.1e-05 kPa
- vapor or sublimation pressure ([1]; 325.15 K): 0.000202 ± 2.1e-05 kPa and 0.0002 ± 2.1e-05 kPa and 0.000205 ± 2.1e-05 kPa
- vapor or sublimation pressure ([1]; 327.17 K): 0.000252 ± 2.2e-05 kPa and 0.00025 ± 2.2e-05 kPa and 0.000255 ± 2.2e-05 kPa
- vapor or sublimation pressure ([1]; 329.3 K): 0.000323 ± 2.3e-05 kPa and 0.000321 ± 2.3e-05 kPa and 0.000325 ± 2.3e-05 kPa
- vapor or sublimation pressure ([1]; 331.18 K): 0.000398 ± 2.4e-05 kPa and 0.0004 ± 2.5e-05 kPa and 0.000394 ± 2.4e-05 kPa
- vapor or sublimation pressure ([1]; 333.2 K): 0.0005 ± 2.7e-05 kPa and 0.000496 ± 2.7e-05 kPa
- vapor or sublimation pressure ([1]; 335.36 K): 0.000633 ± 3e-05 kPa and 0.000631 ± 3e-05 kPa and 0.000637 ± 3e-05 kPa
- vapor or sublimation pressure ([1]; 337.13 K): 0.000764 ± 3.4e-05 kPa and 0.000748 ± 3.3e-05 kPa and 0.000772 ± 3.4e-05 kPa
- vapor or sublimation pressure ([1]; 339.23 K): 0.000919 ± 3.8e-05 kPa and 0.000934 ± 3.9e-05 kPa and 0.000926 ± 3.8e-05 kPa
- vapor or sublimation pressure ([1]; 341.31 K): 0.001191 ± 9.6e-05 kPa and 0.001182 ± 9.5e-05 kPa and 0.001186 ± 9.5e-05 kPa
- Normal melting temperature [1]: 120.20 ± 0.43 °C
- Molar enthalpy of transition or fusion [2]: 6.2 ± 0.151 kcal/mol
